Each structure is given as a SMILES string. A value given as a limit tells only on which side of the number the result lay.

What is called IC50 is the concentration needed to halve the response being measured.

The target in this assay is T1, human acetyl-CoA carboxylase 2 (ACC2) (Homo sapiens, UniProt O00763).
T1 construct: The cDNA encoding amino acids 144 to 2458 of human acetyl-CoA carboxylase 2; made in house; host or cells: Sf9 insect cells (baculovirus, pFastBac1)
T1 sequence (O00763 144-2458): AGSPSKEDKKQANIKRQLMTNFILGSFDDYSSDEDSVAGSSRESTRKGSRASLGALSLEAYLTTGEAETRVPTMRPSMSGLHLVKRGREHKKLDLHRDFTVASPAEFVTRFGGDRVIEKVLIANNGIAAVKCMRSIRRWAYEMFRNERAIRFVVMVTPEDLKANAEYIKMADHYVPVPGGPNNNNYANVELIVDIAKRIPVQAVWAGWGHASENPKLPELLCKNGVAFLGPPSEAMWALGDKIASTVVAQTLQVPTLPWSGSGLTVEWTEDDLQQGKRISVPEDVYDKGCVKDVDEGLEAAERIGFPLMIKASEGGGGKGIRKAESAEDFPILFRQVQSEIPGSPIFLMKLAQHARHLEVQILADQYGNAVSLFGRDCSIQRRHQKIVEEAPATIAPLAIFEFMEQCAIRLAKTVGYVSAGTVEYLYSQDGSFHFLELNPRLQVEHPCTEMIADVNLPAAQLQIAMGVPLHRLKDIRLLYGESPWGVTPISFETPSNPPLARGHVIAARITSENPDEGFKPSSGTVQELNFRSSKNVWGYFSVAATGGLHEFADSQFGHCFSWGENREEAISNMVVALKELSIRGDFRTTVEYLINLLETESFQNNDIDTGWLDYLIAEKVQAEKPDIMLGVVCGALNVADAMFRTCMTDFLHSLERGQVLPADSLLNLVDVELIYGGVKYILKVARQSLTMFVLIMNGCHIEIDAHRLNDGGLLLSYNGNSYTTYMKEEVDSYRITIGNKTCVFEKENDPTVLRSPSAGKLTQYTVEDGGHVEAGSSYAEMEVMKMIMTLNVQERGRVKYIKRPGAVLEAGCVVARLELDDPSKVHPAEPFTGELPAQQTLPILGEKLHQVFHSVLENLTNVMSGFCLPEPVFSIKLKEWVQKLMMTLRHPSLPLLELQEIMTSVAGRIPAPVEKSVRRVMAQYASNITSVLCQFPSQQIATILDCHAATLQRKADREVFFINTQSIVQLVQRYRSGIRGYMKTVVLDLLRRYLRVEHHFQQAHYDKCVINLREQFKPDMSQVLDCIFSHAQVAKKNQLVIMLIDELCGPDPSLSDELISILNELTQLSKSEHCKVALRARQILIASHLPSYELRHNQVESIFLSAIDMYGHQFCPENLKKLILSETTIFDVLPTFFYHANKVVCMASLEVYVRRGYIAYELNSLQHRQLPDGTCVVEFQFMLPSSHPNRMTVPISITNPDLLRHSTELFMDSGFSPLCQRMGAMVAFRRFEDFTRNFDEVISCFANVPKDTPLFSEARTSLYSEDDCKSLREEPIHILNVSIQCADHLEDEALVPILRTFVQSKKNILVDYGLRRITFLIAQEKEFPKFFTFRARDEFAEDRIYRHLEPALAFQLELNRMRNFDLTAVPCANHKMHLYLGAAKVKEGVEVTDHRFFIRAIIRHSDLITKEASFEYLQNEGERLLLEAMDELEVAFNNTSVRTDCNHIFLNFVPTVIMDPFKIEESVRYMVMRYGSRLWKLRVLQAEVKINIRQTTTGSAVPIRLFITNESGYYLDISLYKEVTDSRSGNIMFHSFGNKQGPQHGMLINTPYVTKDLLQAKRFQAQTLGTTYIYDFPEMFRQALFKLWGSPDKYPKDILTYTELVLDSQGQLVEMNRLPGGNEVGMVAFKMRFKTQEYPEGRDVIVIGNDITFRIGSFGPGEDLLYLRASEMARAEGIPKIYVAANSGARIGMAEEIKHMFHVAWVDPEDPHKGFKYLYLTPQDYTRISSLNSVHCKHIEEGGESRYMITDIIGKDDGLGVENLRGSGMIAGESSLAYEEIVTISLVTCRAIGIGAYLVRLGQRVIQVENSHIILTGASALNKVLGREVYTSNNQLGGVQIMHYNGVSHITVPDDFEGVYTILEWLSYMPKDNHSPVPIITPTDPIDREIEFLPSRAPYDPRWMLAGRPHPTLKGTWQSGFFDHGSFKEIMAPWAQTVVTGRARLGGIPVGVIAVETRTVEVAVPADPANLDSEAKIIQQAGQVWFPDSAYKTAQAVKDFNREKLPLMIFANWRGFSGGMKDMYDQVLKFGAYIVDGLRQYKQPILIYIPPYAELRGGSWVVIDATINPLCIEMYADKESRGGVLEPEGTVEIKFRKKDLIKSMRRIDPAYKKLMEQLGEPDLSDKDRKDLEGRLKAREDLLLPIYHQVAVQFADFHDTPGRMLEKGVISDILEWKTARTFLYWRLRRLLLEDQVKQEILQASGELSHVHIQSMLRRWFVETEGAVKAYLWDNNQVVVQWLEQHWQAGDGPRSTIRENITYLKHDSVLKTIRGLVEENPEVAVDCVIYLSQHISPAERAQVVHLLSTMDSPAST
The assay is described as follows: Acetyl-CoA carboxylase enzyme assay (malonyl-CoA formation by LC/MS/MS). Type of assay: biochemical. Particulars: recombinant human ACC2 (aa 144-2458); read-out: IC50 ACC2. Put shortly: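 Malonyl-CoA formation was read by LC/MS/MS MRM against a [13C3]-malonyl-CoA internal standard, after acetic acid quench. The enzyme was baculovirus/Sf9-expressed human ACC2 residues 144–2458, given 15 minutes room-temperature compound preincubation in HEPES pH 7.5 buffer with MgCl2, citrate and DTT. Substrate solution held 50 μM acetyl-CoA, 120 μM ATP and 2 mM KHCO3.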
With `Cn1c(C2CC2)c(Cl)c2ccc(S(=O)(=O)N[C@H]3CC[C@H](C(=O)N4CCN[C@@H](C(F)(F)F)C4)CC3)cc21` [Example 362, 3-chloro-2-cyclopropyl-1-methyl-N-((1R,4r)-4-((R)-3-(trifluoromethyl)piperazine-1-carbonyl)cyclohexyl)-1H-indole-6-sulfonamide], the IC50 is 75 nM.

Consider `Cn1c(C2CC2)c(Cl)c2ccc(S(=O)(=O)N[C@H]3CC[C@H](C(=O)N4CCOCC4)CC3)cc21` [Example 363, 3-chloro-2-cyclopropyl-1-methyl-N-((1r,4r)-4-(morpholine-4-carbonyl)cyclohexyl)-1H-indole-6-sulfonamide], for which the IC50 worked out at 120 nM.

For `CCN(C)C(=O)[C@H]1CC[C@H](NS(=O)(=O)c2ccc3cc(-c4ccc(CCC(=O)OC)cc4)n(C)c3c2)CC1` [Example 364, methyl 3-(4-(6-(N-((1r,4r)-4-(ethyl(methyl)carbamoyl)cyclohexyl)sulfamoyl)-1-methyl-1H-indol-2-yl)phenyl)propanoate], the concentration for half-maximal inhibition (IC50) came to 140 nM. With `CCN(C)C(=O)[C@H]1CC[C@H](NS(=O)(=O)c2ccc3cc(-c4ccc(CCC(=O)O)cc4)n(C)c3c2)CC1` [Example 365, 3-(4-(6-(N-((1r,4r)-4-(ethyl(methyl)carbamoyl)cyclohexyl)sulfamoyl)-1-methyl-1H-indol-2-yl)phenyl)propanoic acid] the figure was 410 nM. Turning to `CCN(C)C(=O)[C@H]1CC[C@H](NS(=O)(=O)c2ccc3c(Cl)c(-c4ccc(CCC(=O)O)cc4)n(C)c3c2)CC1` [Example 366, 3-(4-(3-chloro-6-(N-((1r,4r)-4-(ethyl(methyl)carbamoyl)cyclohexyl)sulfamoyl)-1-methyl-1H-indol-2-yl)phenyl)propanoic acid], the IC50 came out at 15 nM. The result for `CCN(C)C(=O)[C@H]1CC[C@H](NS(=O)(=O)c2ccc3c(Cl)c(-c4ccc(CCC(=O)OC)cc4)n(C)c3c2)CC1` [Example 367, methyl 3-(4-(3-chloro-6-(N-((1r,4r)-4-(ethyl(methyl)carbamoyl)cyclohexyl)sulfamoyl)-1-methyl-1H-indol-2-yl)phenyl)propanoate] reads 30 nM. The result for `Cn1c(C2CC2)cc2ccc(S(=O)(=O)N[C@H]3CC[C@H](C(=O)N4CCCC(C(C)(C)O)C4)CC3)cc21` (stereo partly shown) [Example 368, 2-cyclopropyl-N-((1r,4r)-4-(3-(2-hydroxypropan-2-yl)piperidine-1-carbonyl)cyclohexyl)-1-methyl-1H-indole-6-sulfonamide] reads 145 nM. The result for `CCOC(=O)CCc1cc2ccc(S(=O)(=O)N[C@H]3CC[C@H](C(=O)N4CCCC4c4ccc(F)cc4)CC3)cc2n1C` (stereo partly shown) [Example 369, ethyl 3-(6-(N-((1r,4r)-4-(2-(4-fluorophenyl)pyrrolidine-1-carbonyl)cyclohexyl)sulfamoyl)-1-methyl-1H-indol-2-yl)propanoate] reads 180 nM; that for `Cn1c(CCC(=O)O)cc2ccc(S(=O)(=O)N[C@H]3CC[C@H](C(=O)N4CCCC4c4ccc(F)cc4)CC3)cc21` (stereo partly shown) [Example 370, 3-(6-(N-((1r,4r)-4-(2-(4-fluorophenyl)pyrrolidine-1-carbonyl)cyclohexyl)sulfamoyl)-1-methyl-1H-indol-2-yl)propanoic acid], 270 nM; that for `CCOC(=O)CCc1c(Cl)c2ccc(S(=O)(=O)N[C@H]3CC[C@H](C(=O)N4CCCC4c4ccc(F)cc4)CC3)cc2n1C` (stereo partly shown) [Example 371, ethyl 3-(3-chloro-6-(N-((1r,4r)-4-(2-(4-fluorophenyl)pyrrolidine-1-carbonyl)cyclohexyl)sulfamoyl)-1-methyl-1H-indol-2-yl)propanoate], 115 nM. `Cn1c(CCC(=O)O)c(Cl)c2ccc(S(=O)(=O)N[C@H]3CC[C@H](C(=O)N4CCCC4c4ccc(F)cc4)CC3)cc21` (stereo partly shown) [Example 372, 3-(3-chloro-6-(N-((1r,4r)-4-(2-(4-fluorophenyl)pyrrolidine-1-carbonyl)cyclohexyl)sulfamoyl)-1-methyl-1H-indol-2-yl)propanoic acid]: the half-maximal inhibitory concentration (IC50) turned out to be 45 nM. Consider `O=C([C@H]1CC[C@H](NS(=O)(=O)c2ccc3c(Cl)c(-c4ccccc4)[nH]c3c2)CC1)N1CCCCC1` [Example 373, 3-chloro-2-phenyl-N-((1r,4r)-4-(piperidine-1-carbonyl)cyclohexyl)-1H-indole-6-sulfonamide], for which the IC50 stood at 75 nM. For `Cn1c(-c2ccccc2)c(Cl)c2ccc(S(=O)(=O)N[C@H]3CC[C@H](C(=O)N4CCCCC4)CC3)cc21` [Example 374, 3-chloro-1-methyl-2-phenyl-N-((1r,4r)-4-(piperidine-1-carbonyl)cyclohexyl)-1H-indole-6-sulfonamide], the half-maximal inhibitory concentration (IC50) came out at 20 nM.

Consider `O=C([C@H]1CC[C@H](NS(=O)(=O)c2ccc3cc(-c4ccccc4)[nH]c3c2)CC1)N1CCCCC1` [Example 375, 2-phenyl-N-((1r,4r)-4-(piperidine-1-carbonyl)cyclohexyl)-1H-indole-6-sulfonamide], for which the concentration for half-maximal inhibition (IC50) was determined as 75 nM. With `Cn1c(-c2ccccc2)cc2ccc(S(=O)(=O)N[C@H]3CC[C@H](C(=O)N4CCCCC4)CC3)cc21` [Example 376, 1-methyl-2-phenyl-N-((1r,4r)-4-(piperidine-1-carbonyl)cyclohexyl)-1H-indole-6-sulfonamide] the figure was 95 nM; with `COC[C@@H](NC(=O)[C@H]1CC[C@H](NS(=O)(=O)c2ccc3cc(C4CC4)n(C)c3c2)CC1)c1ccccc1` [Example 377, (1r,4S)-4-(2-cyclopropyl-1-methyl-1H-indole-6-sulfonamido)-N-((S)-2-methoxy-1-phenylethyl)cyclohexanecarboxamide], 10 nM; with `Cn1c(-c2ccccc2)cc2ccc(S(=O)(=O)N[C@H]3CC[C@H](C(=O)N4CCCC(C(C)(C)O)C4)CC3)cc21` (stereo partly shown) [Example 378, N-((1r,4r)-4-(3-(2-hydroxypropan-2-yl)piperidine-1-carbonyl)cyclohexyl)-1-methyl-2-phenyl-1H-indole-6-sulfonamide], 10 nM. The result for `COc1ccc(COC(=O)C2(C)CCC(NS(=O)(=O)c3ccc4c(ccn4C)c3)CC2)cc1` (stereo not shown) [Example 379, 4-methoxybenzyl 1-methyl-4-(1-methyl-1H-indole-5-sulfonamido)cyclohexanecarboxylate] reads 580 nM; that for `Cn1c(C2CC2)c(C#N)c2ccc(S(=O)(=O)N[C@H]3CC[C@H](C(=O)N4CCN[C@@H](C(F)(F)F)C4)CC3)cc21` [Example 380, 3-cyano-2-cyclopropyl-1-methyl-N-((1R,4r)-4-((R)-3-(trifluoromethyl)piperazine-1-carbonyl)cyclohexyl)-1H-indole-6-sulfonamide], 75 nM. With `Cn1c(C2CC2)c(C#N)c2ccc(S(=O)(=O)N[C@H]3CC[C@H](C(=O)N4CCCCC4)CC3)cc21` [Example 381, 3-cyano-2-cyclopropyl-1-methyl-N-((1r,4r)-4-(piperidine-1-carbonyl)cyclohexyl)-1H-indole-6-sulfonamide], the half-maximal inhibitory concentration (IC50) stood at 210 nM. With `C[C@H]1CCCCN1C(=O)[C@H]1CC[C@H](NS(=O)(=O)c2ccc3c(C#N)c(C4CC4)n(C)c3c2)CC1` [Example 382, 3-cyano-2-cyclopropyl-1-methyl-N-((1S,4r)-4-((S)-2-methylpiperidine-1-carbonyl)cyclohexyl)-1H-indole-6-sulfonamide], the IC50 stood at 95 nM. Take `CC(C)(O)C1CCCN(C(=O)[C@H]2CC[C@H](NS(=O)(=O)c3ccc4c(Cl)c(-c5ccccc5)[nH]c4c3)CC2)C1` (stereo partly shown) [Example 383, 3-chloro-N-((1r,4r)-4-(3-(2-hydroxypropan-2-yl)piperidine-1-carbonyl)cyclohexyl)-2-phenyl-1H-indole-6-sulfonamide]: the IC50 is less than 10 nM. With `Cn1c(-c2ccccc2)c(Cl)c2ccc(S(=O)(=O)N[C@H]3CC[C@H](C(=O)N4CCCC(C(C)(C)O)C4)CC3)cc21` (stereo partly shown) [Example 384, 3-chloro-N-((1r,4r)-4-(3-(2-hydroxypropan-2-yl)piperidine-1-carbonyl)cyclohexyl)-1-methyl-2-phenyl-1H-indole-6-sulfonamide] the figure was less than 10 nM; with `Cn1ccc2cc(S(=O)(=O)NC3CCC(C)(C(=O)N4CCOCC4)CC3)ccc21` (stereo not shown) [Example 385, 1-methyl-N-(4-methyl-4-(morpholine-4-carbonyl)cyclohexyl)-1H-indole-5-sulfonamide], 920 nM; with `COC(=O)CCc1ccc(-c2cc3ccc(S(=O)(=O)N[C@H]4CC[C@H](C(=O)N5CCCC5c5ccc(F)cc5)CC4)cc3n2C)cc1` (stereo partly shown) [Example 386, methyl 3-(4-(6-(N-((1r,4r)-4-(2-(4-fluorophenyl)pyrrolidine-1-carbonyl)cyclohexyl)sulfamoyl)-1-methyl-1H-indol-2-yl)phenyl)propanoate], 25 nM. Regarding `Cn1c(-c2ccc(CCC(=O)O)cc2)cc2ccc(S(=O)(=O)N[C@H]3CC[C@H](C(=O)N4CCCC4c4ccc(F)cc4)CC3)cc21` (stereo partly shown) [Example 387, 3-(4-(6-(N-((1r,4r)-4-(2-(4-fluorophenyl)pyrrolidine-1-carbonyl)cyclohexyl)sulfamoyl)-1-methyl-1H-indol-2-yl)phenyl)propanoic acid], the IC50 is less than 10 nM.

As for `CC(C)OC(=O)C1(C)CCC(NS(=O)(=O)c2ccc3c(ccn3C)c2)CC1` (stereo not shown) [Example 388, isopropyl 1-methyl-4-(1-methyl-1H-indole-5-sulfonamido)cyclohexanecarboxylate], the 50% inhibitory concentration (IC50) was found to be 110 nM. As for `Cn1c(C2CC2)c(C#N)c2ccc(S(=O)(=O)N[C@H]3CC[C@H](C(=O)N4CCC[C@@H]4C(F)(F)F)CC3)cc21` [Example 389, 3-cyano-2-cyclopropyl-1-methyl-N-((1R,4r)-4-((R)-2-(trifluoromethyl)pyrrolidine-1-carbonyl)cyclohexyl)-1H-indole-6-sulfonamide], the 50% inhibitory concentration (IC50) amounted to 15 nM.
